Experimental data: article PMC4399838, “Antipsychotic-Like Effect of the Muscarinic Acetylcholine Receptor Agonist BuTAC in Non-Human Primates” (PLoS ONE, 2015)
Read-outs that look alike come from different tables or passages of the source.

Columns and labels:
[1] = target: T1, human M3 muscarinic receptor (Homo sapiens, UniProt P20309); set-up: method as in Watt et al. 2013 [10]; conditions: antagonist mode, ref Watt et al. 2013 [10], cited from earlier work
T1 construct: purchased PerkinElmer Life and Analytical Sciences, Boston, MA

[2] = target: T2, M5AChR (Homo sapiens, UniProt P08912); assay: Competitive radioligand binding
T2 sequence (P08912 1-532): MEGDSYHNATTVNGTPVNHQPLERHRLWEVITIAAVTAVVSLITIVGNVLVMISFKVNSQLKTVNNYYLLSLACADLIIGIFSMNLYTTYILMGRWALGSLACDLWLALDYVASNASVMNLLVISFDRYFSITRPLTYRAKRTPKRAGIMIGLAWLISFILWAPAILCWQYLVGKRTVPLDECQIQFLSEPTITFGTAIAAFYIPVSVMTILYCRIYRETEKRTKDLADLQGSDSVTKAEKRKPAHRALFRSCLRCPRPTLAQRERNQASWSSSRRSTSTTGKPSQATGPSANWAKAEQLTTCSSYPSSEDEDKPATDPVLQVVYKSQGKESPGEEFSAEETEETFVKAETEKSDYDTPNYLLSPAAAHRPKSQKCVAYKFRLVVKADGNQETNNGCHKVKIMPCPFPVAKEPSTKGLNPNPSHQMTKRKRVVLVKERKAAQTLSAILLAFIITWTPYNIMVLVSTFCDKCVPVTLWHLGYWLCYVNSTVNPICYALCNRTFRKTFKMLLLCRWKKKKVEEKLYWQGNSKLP

[3] = target: T1, human M3 muscarinic receptor; assay: GTP-γ-[35S] binding, antibody capture SPA (agonist and antagonist mode); type: biochemical
Experimental: (§1) The antibody capture scintillation proximity technique previously described by DeLapp et al was used in a 96-well plate to determine GTP-γ-[35S] binding. One hundred μl (20–40 fmol/well) of membrane preparation from CHO cells that stably express the human M1-M5 muscarinic receptors (PerkinElmer Life and Analytical Sciences, Boston, MA) were incubated with varying concentration of test compound (final concentrations from 50pM to 1μM) for 30 min. One μM final concentration of GDP was added to M2 and M4 receptor membranes before incubation. […] (500 pM final concentration; Perkin Elmer Life and Analytical Sciences) was added to each well followed by 30 min of incubation. Then the labelled membranes were solubilized with 0.27% Nonidet P40 for 30 min where after they were incubated with 20 μl (final dilution of 1:400) of the appropriate rabbit polyclonal Gα antibody (Covance, Princeton, NJ) for 60 min. An anti-Gαq/11 antibody was used for the M1-, M3-, and M5 membranes, whereas an anti-Gαi-3 antibody was used for the M2- and M4 membranes (Eli Lilly and Company, Indianapolis, IN). After 60 min of incubation, 50 μl (1.25 mg/well) anti-rabbit scintillation proximity assay (SPA) beads (GE Healthcare, Piscataway, NJ) were added per well where after the plates were incubated for another 3 h. By use of a Wallac MicroBeta TriLux scintillation counter (PerkinElmer), the plates were centrifuged for 10 min at 700 × g and counted for 1 min per well. The incubations took place at room temperature in GTP-binding assay buffer (20 mM Hepes, 100 mm NaCl, 5 mM MgC12, pH 7.4). The data were analyzed by use of nonlinear regression for a sigmoidal concentration response curve (GraphPad Prism v. 4.0). Data were normalized to a full agonist response (100 μM oxotremorine-M). […] The antagonist percent inhibition data were normalized to data generated with an EC90 concentration of acetylcholine. The mean relative EC50, IC50, and %Emax, and pKi values were calculated as a mean of at least three independent experiments±SEM. In order to obtain relevant comparisons between subtypes, the experimental system is routinely calibrated with reference agonists (oxotremorine-M, pilocarpine, MCN-A343) to measure full and partial agonism as well as to ensure that the system is not under- or over-reporting functional efficacies. The radioligand binding assays have earlier been described.

[4] = target: T3, human M2 muscarinic receptor (Homo sapiens, UniProt P08172); assay: as above; type: biochemical
T3 construct: purchased PerkinElmer Life and Analytical Sciences, Boston, MA
T3 sequence (P08172 1-466): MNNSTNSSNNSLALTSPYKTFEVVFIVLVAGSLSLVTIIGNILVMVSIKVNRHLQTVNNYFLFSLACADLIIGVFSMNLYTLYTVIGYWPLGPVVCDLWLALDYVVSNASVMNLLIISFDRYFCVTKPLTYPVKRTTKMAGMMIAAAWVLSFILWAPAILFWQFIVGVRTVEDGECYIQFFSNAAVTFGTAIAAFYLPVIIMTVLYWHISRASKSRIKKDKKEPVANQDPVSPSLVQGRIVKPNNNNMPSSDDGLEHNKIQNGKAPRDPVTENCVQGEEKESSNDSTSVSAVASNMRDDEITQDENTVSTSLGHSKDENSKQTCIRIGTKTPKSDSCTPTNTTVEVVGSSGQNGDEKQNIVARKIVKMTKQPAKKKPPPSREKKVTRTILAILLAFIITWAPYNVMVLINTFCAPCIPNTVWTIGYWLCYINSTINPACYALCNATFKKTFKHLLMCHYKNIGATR
Experimental: as §1

[5] = antagonist mode, maximal inhibition of EC90 agonist response
[6] = percentage of maximum 100 μM oxotremorine-M signal

T1 sequence (P20309 whole entry): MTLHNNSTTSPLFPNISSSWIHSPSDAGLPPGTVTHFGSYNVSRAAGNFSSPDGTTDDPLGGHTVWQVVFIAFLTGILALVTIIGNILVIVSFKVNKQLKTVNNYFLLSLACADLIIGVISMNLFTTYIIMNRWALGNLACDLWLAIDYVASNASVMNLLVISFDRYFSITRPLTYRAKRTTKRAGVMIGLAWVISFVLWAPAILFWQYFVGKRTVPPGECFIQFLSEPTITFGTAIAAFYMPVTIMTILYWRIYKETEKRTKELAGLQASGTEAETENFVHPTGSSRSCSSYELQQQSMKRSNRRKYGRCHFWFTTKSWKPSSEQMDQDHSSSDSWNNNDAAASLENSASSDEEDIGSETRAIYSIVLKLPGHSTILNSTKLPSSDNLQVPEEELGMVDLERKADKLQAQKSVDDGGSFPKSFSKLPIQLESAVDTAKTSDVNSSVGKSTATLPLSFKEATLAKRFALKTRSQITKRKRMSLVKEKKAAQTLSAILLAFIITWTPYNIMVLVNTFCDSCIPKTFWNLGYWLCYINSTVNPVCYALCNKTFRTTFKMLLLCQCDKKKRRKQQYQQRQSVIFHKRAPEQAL

CCCCSc1nsnc1[C@H]1CN2CCC[C@H]1C2 [BuTAC, (5R,6R)-6-(3-butylthio-1,2,5-thiadiazol-4-yl)-1-azabicyclo[3.2.1]octane]
Rel pIC50 ([1]; negative log-transformed): 8.55 ± 8.59 M | % Inhibition [1]: 100.00 ± 0.00%

CCCSc1nsnc1[C@H]1CN2CCC[C@H]1C2 [PTAC, (5R,6R) 6-(3-propylthio-1,2,5-thiadiazol-4-yl)-1-azabicyclo-[3.2.1]-octane]
Ki [2]: 0.372 nM | EC50 [3]: 1.95 nM | IC50 [3]: 20.4 nM | % Inhibition [3, 5]: 90.45 ± 3.52% | Emax [3, 6]: 11.9 ± 3.07% | EC50 [4]: 0.501 nM | IC50 [4]: 3.47 nM | % Inhibition [4, 5]: 16.8 ± 5.49% | Emax [4, 6]: 68.5 ± 5.23%
